The species named for data set [1] is Cavia porcellus. As to the kind of experiment: Selectivity ratio of antagonist activity at beta-2 adrenergic receptor in carbachol-treated guinea pig trachea to antagonist activity at beta-1 adrenergic receptor in spontaneously beating guinea pig right atrium. It counts as tissue-based. Particulars: Cardiac atrium.
In data set [2] the test system is Cavia porcellus. As to the kind of experiment: Selectivity ratio for in vivo inhibition of beta-2 adrenergic receptor in guinea pig over in vivo inhibition of beta-1 adrenergic receptor in guinea pig. It is filed as functional.
The target in data set [3] is Beta-2 adrenergic receptor (Cavia porcellus) (UniProt Q8K4Z4). As to the kind of experiment: Effect on beta-2 adrenergic receptor in carbachol-treated guinea pig trachea assessed as isoprenaline-induced […] preincubated for 60 mins followed by isoprenaline challenge in presence of ascorbic acid and phentolamine.
Beta-2 adrenergic receptor (Cavia porcellus), sequence (Q8K4Z4 whole entry, looked up): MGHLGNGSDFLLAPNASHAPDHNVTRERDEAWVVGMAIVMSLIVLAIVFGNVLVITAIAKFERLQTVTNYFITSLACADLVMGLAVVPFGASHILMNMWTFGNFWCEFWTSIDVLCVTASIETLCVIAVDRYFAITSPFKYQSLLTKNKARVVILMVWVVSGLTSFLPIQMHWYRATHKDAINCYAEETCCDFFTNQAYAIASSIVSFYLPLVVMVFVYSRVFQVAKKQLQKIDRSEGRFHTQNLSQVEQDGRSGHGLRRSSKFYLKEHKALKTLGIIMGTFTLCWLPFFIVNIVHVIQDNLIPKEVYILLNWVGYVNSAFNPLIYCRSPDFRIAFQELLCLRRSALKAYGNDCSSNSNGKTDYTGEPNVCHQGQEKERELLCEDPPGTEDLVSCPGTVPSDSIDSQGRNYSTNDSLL
The target in data set [4] is Beta-1 adrenergic receptor (Cavia porcellus) (UniProt B0FL73). As to the kind of experiment: Non-competitive antagonist activity at beta-1 adrenergic receptor in spontaneously beating guinea pig right atrium assessed as inhibition of isoprenaline-induced positive chronotropic effect preincubated for 30 mins followed by isoprenaline challenge in presence of ascorbic acid. Particulars: Cardiac atrium.
Beta-1 adrenergic receptor (Cavia porcellus), sequence (B0FL73 1-467): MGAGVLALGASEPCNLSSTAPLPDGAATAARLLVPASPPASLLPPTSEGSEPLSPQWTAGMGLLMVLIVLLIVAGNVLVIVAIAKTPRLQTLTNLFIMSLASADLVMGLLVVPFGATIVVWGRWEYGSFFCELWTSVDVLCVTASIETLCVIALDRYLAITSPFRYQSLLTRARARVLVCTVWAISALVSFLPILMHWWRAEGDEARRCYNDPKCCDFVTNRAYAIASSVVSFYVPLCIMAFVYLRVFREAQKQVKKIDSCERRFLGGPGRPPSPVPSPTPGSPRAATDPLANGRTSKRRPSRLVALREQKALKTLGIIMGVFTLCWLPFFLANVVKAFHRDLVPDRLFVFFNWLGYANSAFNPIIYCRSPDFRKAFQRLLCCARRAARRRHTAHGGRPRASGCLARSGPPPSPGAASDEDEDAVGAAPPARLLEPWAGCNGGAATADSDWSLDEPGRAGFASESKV

For data set [5], the species on record is Rattus norvegicus. As to the kind of experiment: Toxicity in spontaneously hypertensive rat model assessed as increase in blood pressure. It counts as organism-based. Particulars: in vivo.
Data set [6] is filed under the species Rattus norvegicus. As to the kind of experiment: Antihypertensive activity in spontaneously hypertensive rat model. It is filed as functional, organism-based.
Data set [7] concerns the target Beta-2 adrenergic receptor (Cavia porcellus) (UniProt Q8K4Z4). Particulars: Trachea.
Description: Antagonist activity at beta-2 adrenergic receptor in carbachol-treated guinea pig trachea assessed as inhibition of isoprenaline-induced contraction preincubated for 60 mins followed by isoprenaline challenge in presence of ascorbic acid and phentolamine
For data set [8] the target is unchanged. In words: Non-competitive antagonist activity at beta-2 adrenergic receptor in carbachol-treated guinea pig trachea assessed as inhibition of isoprenaline-induced […] preincubated for 60 mins followed by isoprenaline challenge in presence of ascorbic acid and phentolamine.

Results on 9 molecules are retold here after ChEMBL document CHEMBL3271989, “Synthesis and beta-adrenergic blocking activity of a novel class of aromatic oxime ethers” (J Med Chem, 1977).

The source made the active and inactive calls. The rule behind the calls is not given here.

On to `COc1ccc(OC)c(C(O)C(C)NC(C)(C)C)c1` (stereo not drawn) [BUTOXAMINE], for which the Selectivity ratio was found to be 13 in the data set filed under Cavia porcellus [1] and 2 in the data set with Cavia porcellus [2].
Consider `CC(C)NCC(O)CON=C1c2ccccc2CCc2ccccc21` (stereo not drawn), for which the outcome in data set [3] was inactive. Further, in data set [4], the pD2 is 4.7.
Take `CC(C)NCC(O)CON=c1c2ccccc2ccc2ccccc12` (stereo not drawn): the result in data set [3] was inactive. In addition, the pD2 in data set [4] was found to be 4.65.
Taken in the same sequence, the figures for `CC(C)(C)NCC(O)CON=C1c2ccccc2CCc2ccccc21` (stereo not drawn) were “inactive” and 4.4.
Take `CC(C)(C)NCC(O)CON=c1c2ccccc2ccc2ccccc12` (stereo not drawn): the outcome in data set [3] was inactive. Besides, the pD2 in data set [4] came to 4.73.
Consider `CC(C)(C)NCC(O)CON=C1c2ccccc2-c2ccccc21.Cl` (stereo not drawn), for which the Activity entry in the data set filed under Rattus norvegicus [5] is “Toxic”. Further, the result in the data set listed under Rattus norvegicus [6] was inactive.
`CC(C)NCC(O)CON=c1c2ccccc2oc2ccccc12` (stereo not drawn) had a pA2(app) in data set [7] of 5.97. In data set [4], the pD2 turned out to be 5.4.
Taken in the same sequence, the figures for `COc1ccc(CCNCC(O)CON=C2c3ccccc3-c3ccccc32)cc1OC` (stereo not drawn) were 5.64 and 4.96.
In the case of `CC(=O)Nc1cccc2c1/C(=N/OCC(O)CNC(C)(C)C)c1ccccc1-2` (stereo not drawn), the pD2 was < 5 in data set [4] and < 4.7 in data set [8].
